Reference: US5976848A, “Method of identifying potential fungicides using dihydroorotate dehydrogenase inhibition assay” (priority 1992, dated 1999)
Converted amounts (≈) assume the structure as drawn. “Also recorded” adds a separate entry of the source.

Columns and labels:
Botrytis cinerea = experiment: greenhouse tests against Botrytis cinerea; assay type: in vivo
Penicillium digitalum = experiment: greenhouse tests against Penicillium digitalum; assay type: in vivo
Aspergillus nidulans [1] = experiment: growth inhibition of Aspergillus nidulans; assay type: cell-based
Cephalosiorium = experiment: sensitivity of Cephalosporium to CCFQ; assay type: cell-based
Neurospora = experiment: sensitivity of Neurospora to CCFQ; assay type: cell-based
DHOD = DHOD in vitro tests; assay type: biochemical
[2] = molecular target: T1, DHOD produced by mutant Aspergillus nidulans strains resistant to CCFQ (Aspergillus nidulans, UniProt G5EB61); experiment: inhibition of DHOD produced by CCFQ-resistant mutant strains; assay type: biochemical; details: DHOD from resistant mutant A. nidulans
T1 construct: V200E (preferred, MNNG, FGSC612) or A115V (EMS, FGSC610)
T1 sequence (G5EB61 1-520): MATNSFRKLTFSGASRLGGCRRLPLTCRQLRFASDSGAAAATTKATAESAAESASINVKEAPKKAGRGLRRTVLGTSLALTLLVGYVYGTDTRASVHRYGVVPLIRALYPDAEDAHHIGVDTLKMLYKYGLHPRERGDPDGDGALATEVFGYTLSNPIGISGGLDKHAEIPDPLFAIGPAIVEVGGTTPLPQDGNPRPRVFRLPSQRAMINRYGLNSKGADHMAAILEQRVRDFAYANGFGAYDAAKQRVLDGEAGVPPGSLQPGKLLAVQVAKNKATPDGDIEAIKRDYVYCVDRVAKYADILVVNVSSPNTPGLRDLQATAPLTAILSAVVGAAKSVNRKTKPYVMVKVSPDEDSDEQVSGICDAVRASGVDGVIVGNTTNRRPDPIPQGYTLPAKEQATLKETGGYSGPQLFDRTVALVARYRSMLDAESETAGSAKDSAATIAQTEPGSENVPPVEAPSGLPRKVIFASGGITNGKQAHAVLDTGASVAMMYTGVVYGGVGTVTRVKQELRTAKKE

Aspergillus nidulans [3] = experiment: physiological and biochemical responses of Aspergillus nidulans treated with CCFQ; assay type: cell-based
Description: The physiological and biochemical responses caused by the experimental fungicide CCFQ are not characteristic of known modes of action. […] It causes an unusual effect on synthesis of nucleic acids in that incorporation of radiolabelled precursors is stimulated by treatment with CCFQ. […] Some media supplements overcame growth inhibition by CCFQ. […] All these observations are consistent with the primary target of CCFQ being an electron-transferring enzyme in the pyrimidine biosynthetic pathway. […] This is a novel fungicidal mode of action, and its discovery opens the opportunity to detect novel chemical compounds that attack the same target.

[4] = treatment of Aspergillus nidulans

Fc1ccc(Oc2ccnc3c(Cl)cccc23)c(Cl)c1 [CCFQ, 8-chloro-4-(2-chloro-4-fluorophenoxy)quinoline]
inhibition of Botrytis cinerea (Botrytis cinerea; 50 μg/ml, greenhouse tests): completely inhibits
inhibition of growth of Botrytis cinerea (Botrytis cinerea; no concentration stated): completely inhibits
inhibition of Penicillium digitalum (Penicillium digitalum; 50 μg/ml, greenhouse tests): completely inhibits
inhibition of growth of Penicillium digitalum (Penicillium digitalum; no concentration stated): completely inhibits
IC50 (Aspergillus nidulans [1]; against Aspergillus nidulans, read-out: IC50 (concentration that inhibits growth by 50%)): 0.15 µg/mL (≈ 0.487 µM)
inhibition of growth of Aspergillus (Aspergillus nidulans [1]; no concentration stated): inhibits the growth
sensitivity to CCFQ / growth inhibition (Cephalosiorium): inhibits the growth; also recorded: sensitive
sensitivity to CCFQ / growth inhibition (Neurospora): inhibits the growth; also recorded: sensitive
sensitivity of DHOD to CCFQ (DHOD): extremely sensitive
inhibition of DHOD of CCFQ-resistant mutant strains [2]: resistant to inhibition
reversal of growth inhibition by media supplements (Aspergillus nidulans [3]; combination of uracil and a free radical scavenger such as α-tocopherol): complete reversal
change in amino acid content (Aspergillus nidulans [3]; [4]): no significant changes
change in lipid composition (Aspergillus nidulans [3]; [4]): no significant changes
change in protein accumulation (Aspergillus nidulans [3]; [4]): no significant changes
change in respiration (Aspergillus nidulans [3]; [4]): no significant changes
effect on cell wall synthesis (Aspergillus nidulans [3]; [4]): perturbs cell wall synthesis in a non-specific manner
incorporation of radiolabelled precursors (synthesis of nucleic acids) (Aspergillus nidulans [3]; [4]): stimulated
